According to patent US7368429B2, “Peptide specificity of anti-myelin basic protein and the administration of myelin basic protein peptides to multiple sclerosis patients” (The Governors of the University of Alberta, priority 1991, dated 2008):
“Also recorded” adds a separate entry of the source. Where a SMILES comes first, the peptide text is derived from it. Where no end group is shown, it is not given here.

What was measured:
[1] = system: anti-MBP purified from CSF of MS patients; experiment: In vitro neutralization of purified anti-MBP (liquid phase assay, then solid phase radioimmunoassay); format: binding, human; conditions: for REACTIVITY WITH ANTI-MBP: purified anti-MBP, h-MBP 0-1000 ng, peptides 0-10,000 ng, 1.5 hours incubation; for neutralization of purified anti-MBP: pooled anti-MBP from 10 MS patients, FIG. 2; for neutralization of anti-MBP purified from individual patients: anti-MBP from 7 individual MS patients, FIG. 3; for times less effective on a molar basis than intact MBP at causing inhibition: peptides giving complete inhibition
Text: Purified MBP was coupled to CNBr-activated Sepharose 4B (Pharmacia™) according to the manufacturer's instructions. Purified CSF IgG containing increased anti-MBP levels from 35 patients with acute MS relapses was used to isolate anti-MBP by MBP-Sepharose affinity chromatography (Warren, K. G. and Catz, I., J Neurol Sci 103:90-96, 1991). Purified anti-MBP samples were compared with the initial IgG source by poly-acrylamide gel electrophoresis. When purified anti-MBP samples were absorbed to zero with MBP, the post-absorption supernatants contained no residual IgG indicating the purity of anti-MBP.
Constant amounts of anti-MBP (15 radioactivity binding units corresponding to 100 for scale expansion purposes=% 0) were incubated with increasing amounts of h-MBP (0-1000 ng) or individual peptides of MBP (0-10,000 ng) in a liquid phase assay and after 1.5 hours incubation, free anti-MBP levels were determined in all mixtures. Anti-MBP isolated from 7 individual MS patients or pooled anti-MBP from 10 different MS patients were used in neutralization experiments. […] Another mouse monoclonal antibody to epitope 45-50 was used as negative antibody control.
Anti-MBP levels were determined by a solid phase radioimmunoassay with human MBP (Warren, K. G. and Catz, I., Ann Neurol 209:20-25, 1986; Warren, K. G. and Catz, I., Ann Neurol 21:183-187, 1987; and Warren, K. G. and Catz, I., J Neurol Sci 91:143-151, 1989). Free anti-MBP levels were measured in all fractions from affinity chromatography and in all neutralization mixtures. All individual samples were run in quadruplicate using the same iodinated material in order to minimize between-assay variability.

[2] = Safety monitoring of MS patients after peptide administration; format: in vivo, human
[3] = Solubility of peptides
[4] = system: CSF anti-MBP; experiment: Intrathecal peptide administration to MS patients, CSF anti-MBP by radioimmunoassay; format: in vivo, human
Method: Anti-MBP levels were determined by a solid phase radioimmunoassay with human MBP coated on Immulon microtiter wells. Immulon microtiter wells were coated with 100 μl of 10 μg/ml of MBP (1 μg/well) and incubated overnight at 37° C. After quenching with bovine serum albumin (BSA) and three water washes, the wells were stored at room temperature. Samples of 100 μl of CSF or tissue extracts diluted to 0.010 gm of IgG/l (with 0.01 M Barbitol Buffered Saline (BBS) pH 6.9-7.1, 0.5% BSA and 0.05% Tween 20) were incubated in MBP-coated wells for 1-2 hours at room temperature. After 5 buffer washes (with 0.01 M BBS, 0.5 BSA and 0.05% Tween 20), wells were incubated with goat […] IgG-Fc specific (in 0.01 M BBS, 0.05% Tween 20, 0.5% BSA) for 1 hour at room temperature and then rinsed as above. Finally, ^125I-protein A (or ^125I-protein G) was added and incubated for 1 hour at room temperature. When ^125I-protein G was used as a tracer, ovalbumin replaced BSA in assay buffer and for quenching. After three final water washes wells were individually counted. Results are expressed in radioactivity defined as: (counts of sample−counts of blank)÷(counts of total radioactivity−counts of blank). All samples are run in 10 replicate and counting time is 10 minutes in order to collect>10,000 counts for any positive sample.
Prior to being assayed all CSF and/or tissue samples were diluted to a final IgG concentration of 0.010 g/l. F anti-MBP was detected directly in CSF or tissue extract while B levels of antibody were determined following acid hydrolysis of immune complexes with glycine HCl buffer pH 2.2. […] For epitope localization, synthetic peptides were firstly reacted with purified antibody in a liquid phase competitive assay and then anti-MBP was determined by radioimmunoassay in all resulting supernatants. Results of the combined competitive binding assay and radioimmunoassay were expressed as percent inhibition of synthetic peptide defined as 100—radioactivity units. Samples were done in 10 replicates and counted for 10 minutes each in a LKB1275 Minigamma counter. […]
A Phase 1 experiment to determine the effect of synthetic peptide MBP75-95 on F and B titers of CSF anti-MBP was conducted. […] After obtaining informed consent, 14 patients volunteered for this study; eight patients were selected on the basis of their initial titre of F CSF anti-MBP (above 8 radioactivity units) (Table 2) to receive one intrathecal injection of either peptide MBP75-95 which bound anti-MBP in vitro or a non-binding control peptide MBP35-58 (Warren and Catz, 1993b). […] Cell counts, total protein, glucose, IgG and albumin levels were determined in all CSF samples obtained. F and B anti-MBP levels were determined by radioimmunoassay, as described above. […]

[5] = target: purified F (free) anti-MBP from MS brain tissue; experiment: liquid-phase competitive inhibition + solid-phase RIA on human MBP (FIG. 10)
[6] = target: purified B (bound) anti-MBP from MS brain tissue; experiment: as above
[7] = target: purified anti-MBP (antibodies to human myelin basic protein purified from CSF of multiple sclerosis patients; pooled from 10 different patients); experiment: liquid-phase neutralization + solid-phase RIA on human MBP; reference intact MBP
[8] = target: free (F) anti-MBP in the CSF of MS patients; experiment: cell-based or functional assay
[9] = target: purified B (bound) anti-MBP from MS brain tissue; experiment: competitive inhibition assays using a series of 41 decapeptides

26-40: synthetic peptide of human MBP sequence 26-40 (HGFLPRHRDTGILDS)
REACTIVITY WITH ANTI-MBP [1]: −

117-129: synthetic peptide of human MBP sequence 117-129 (GAEGQRPGFGYGG)
REACTIVITY WITH ANTI-MBP [1]: −

141-155: synthetic peptide of human MBP sequence 141-155 (FKGVDAQGTLSKIFK)
REACTIVITY WITH ANTI-MBP [1]: −

CC[C@H](C)[C@H](NC(=O)[C@H](CC(N)=O)NC(=O)[C@H](CCCCN)NC(=O)[C@H](Cc1ccccc1)NC(=O)[C@H](Cc1ccccc1)NC(=O)[C@H](Cc1c[nH]cn1)NC(=O)[C@@H](NC(=O)[C@@H](NC(=O)[C@@H]1CCCN1C(=O)[C@H](CC(N)=O)NC(=O)[C@H](CCC(=O)O)NC(=O)[C@H](CC(=O)O)NC(=O)[C@H](CCC(N)=O)NC(=O)[C@@H](NC(=O)[C@H](CCCNC(=N)N)NC(=O)CNC(=O)[C@H](Cc1c[nH]cn1)NC(=O)[C@H](CO)NC(=O)[C@@H](N)CCCCN)[C@@H](C)O)C(C)C)C(C)C)C(=O)N[C@H](C(=O)N[C@H](C(=O)O)[C@@H](C)O)C(C)C [MBP75-95] (H-KSHGRTQDENPVVHFFKNIVT-OH; N-terminus and C-terminus assumed)
adverse effects ([2]; 500 mg intravenously over 30 minutes, patient 8M41): No adverse effects were observed
systemic complications (electrolytes, cardiac-liver-kidney dysfunction, hematology) ([2]; repeated intrathecal inoculations): no adverse complications have occurred

CC[C@H](C)[C@H](NC(=O)[C@H](CC(N)=O)NC(=O)[C@H](CCCCN)NC(=O)[C@H](Cc1ccccc1)NC(=O)[C@H](Cc1ccccc1)NC(=O)[C@H](Cc1c[nH]cn1)NC(=O)[C@@H](NC(=O)[C@@H](N)C(C)C)C(C)C)C(=O)N[C@H](C(=O)N[C@H](C(=O)O)[C@@H](C)O)C(C)C [MBP86-95] (H-VVHFFKNIVT-OH; N-terminus and C-terminus assumed)
solubility in normal saline [3]: very low solubility

Cy 4-18: synthetic peptide of human MBP sequence 4-18 with unnatural cysteine residue (CKRPSQRHGSKYLATA)
REACTIVITY WITH ANTI-MBP [1]: −

Cy 11-24: synthetic peptide of human MBP sequence 11-24 with unnatural cysteine residue (CGSKYLATASTMDHA)
REACTIVITY WITH ANTI-MBP [1]: −

Cy 51-64 Gly: synthetic peptide of human MBP sequence 51-64 with added Cy and Gly (CAPKRGSGKDSHHPAG)
REACTIVITY WITH ANTI-MBP [1]: +

Cy 127-140: synthetic peptide of human MBP sequence 127-140 with unnatural cysteine residue (CYGGRASDYKSAHKG)
REACTIVITY WITH ANTI-MBP [1]: −

Cy 136-149: synthetic peptide of human MBP sequence 136-149 with unnatural cysteine residue (CSAHKGFKGVDAQGT)
REACTIVITY WITH ANTI-MBP [1]: −

HHPARTAHYGSLPQK [MBP61-75]
neutralization of purified anti-MBP [1]: partially neutralized
REACTIVITY WITH ANTI-MBP [1]: +

KNIVTPRTPPPSQGKG [MBP91-106]
neutralization of anti-MBP purified from individual patients [1]: completely neutralized
times less effective on a molar basis than intact MBP at causing inhibition [1]: approximately 100 times
neutralization of purified anti-MBP [1]: completely neutralized
REACTIVITY WITH ANTI-MBP [1]: −

MBP35-58: non-binding, control synthetic peptide of human MBP, residues 35-58 (TGILDSIGRFFGGDRGAPKRGSGK)
CSF F anti-MBP ([4]; single intrathecal injection 5 mg): remained elevated at baseline level
CSF F anti-MBP ([4]; single intrathecal injection 10 mg, chronic progressive MS): persistently elevated
F and B levels of CSF anti-MBP ([4]; single intrathecal injection 1, 2.5, 5 or 10 mg, 24 hour experiment, chronic progressive MS): remained unchanged; also recorded: remained unaffected
CSF F (free) anti-MBP ([4]; single intrathecal injection, increasing amounts 1-10 mg, chronic progressive MS): did not react
REACTIVITY WITH ANTI-MBP [1]: −

Thr Gln Asp Glu Asn Pro Val Val His Phe Phe Lys Asn Ile Val Thr Pro Arg (CTQDENPVVHFFKNIVTPRG) [MBP80-97]
neutralization of anti-MBP purified from individual patients [1]: completely neutralized
times less effective on a molar basis than intact MBP at causing inhibition [1]: approximately 100 times
neutralization of purified anti-MBP [1]: completely neutralized
REACTIVITY WITH ANTI-MBP [1]: ++

YGSLPQKSHGRTQDE [MBP69-83]
neutralization of purified anti-MBP [1]: partially neutralized
REACTIVITY WITH ANTI-MBP [1]: ++

NPVVHFFKNI [decapeptide MBP84-93]
percent inhibition [5]: > 80%
percent inhibition [6]: > 80%

CTQDENPVVHFFKNIVTPRG [peptide MBP80-97 (Cy 80-97 Gly)]
times less effective on a molar basis than intact MBP at causing inhibition [7]: 100 times

VHFFKNIVTP [decapeptide MBP87-96]
percent inhibition [5]: > 80%
percent inhibition [6]: > 80%

KSHGRTQDENPVVHFFKNIVT [synthetic peptide MBP75-95 (Example 2 and later)]
decrease in F anti-MBP level in CSF after one intrathecal injection of 1 mg MBP75-95 (patient 6F53) [8]: 75%
percent inhibition [5]: 100%
percent inhibition [6]: 100%

VVHFFKNIVT [decapeptide MBP86-95]
percent inhibition [9]: > 95%
percent inhibition [5]: > 80%
percent inhibition [6]: > 80%

CKNIVTPRTPPPSQGKG [peptide MBP91-106 (Cy 91-106)]
times less effective on a molar basis than intact MBP at causing inhibition [7]: 100 times

CKSHGRTQDENPVVHFFKNIVT [peptide MBP75-95 (Cy 75-95, Example 1)]
times less effective on a molar basis than intact MBP at causing inhibition [7]: 100 times

PVVHFFKNIV [decapeptide MBP85-94]
percent inhibition [5]: > 80%
percent inhibition [6]: > 80%
